Literature values in patent publication US8314084B2, “Device and methods for sequential, regional delivery of multiple cytotoxic agents and directed assembly of wound repair tissues” (priority 2002, dated 2012).

Settings: given intravenously to dogs

Structure (SMILES): N.N.[Cl][Pt][Cl] [cisplatin, Cis-diamminedichloroplatinum H]
- usual maximum dose-limiting schedule: 70 mg/m^2
